Measurements as given in US6956035B2, “Isoquinoline derivatives and methods of use thereof” (Inotek Pharmaceuticals Corporation, priority 2001, dated 2005).
Marks after values point to notes of the source that are not given here.

Experiments:
purified PARS enzyme = biological target: T1, purified PARS enzyme (Homo sapiens, UniProt P09874); experiment: Purified PARS enzyme inhibition assay (Trevigen kit, 96 well ELISA plates); assay type: biochemical; settings: starred values: tested in purified enzyme assay
T1 construct: purchased Trevigen, Gaithersburg, Md
Experimental: The assay was performed in 96 well ELISA plates according to instructions provided with a commercially available PARS inhibition assay kit (Trevigen, Gaithersburg, Md.). Briefly, wells were coated with 1 mg/mL histone (50 μl/well) at 4° C. overnight. Plates were then washed four times with PBS and then blocked by adding 50 μl Strep-Diluent (supplied with the kit). After incubation (1 h, room temperature), the plates were washed four times with PBS. Appropriate dilutions of PARS inhibitors were combined with 2×PARS cocktail (1.95 mM NAD^+, 50 μM biotinylated NAD^+ in 50 mM TRIS pH 8.0, 25 mM MgCl2) and high specific activity PARS enzyme (both were supplied with the kit) in a volume of 50 μl. The reaction was allowed to proceed for 30 min at room temperature. After 4 washes in PBS, incorporated biotin was detected by peroxidase-conjugated streptavidin (1:500 dilution) and TACS Sapphire substrate.

PARS = biological target: T2, PARS (Mus musculus, UniProt P11103); experiment: PARS activation in peroxynitrite-stimulated cultured RAW macrophages (whole-cell assay, 3H-NAD+ incorporation); assay type: cell-based; settings: cultured murine macrophages; for inhibition at 0.1 µM / % PARS inhibition at 100 nM: 100 nM
T2 construct: endogenous in cells; host or cells: RAW mouse macrophages
Experimental: RAW mouse macrophages were cultured in DMEM medium with high glucose and supplemented with 10% fetal bovine serum. Cells were used at 80% confluence in 12-well plates. Cells were pretreated with various concentrations (100 nM-1 μM) of an Isoquinoline Derivative for 10 min. Peroxynitrite, a prototypical oxidant which induces DNA single strand breakage, was used to induce PARS activation. Peroxynitrite was diluted in phosphate buffered saline (PBS) (pH 11.0) and added to the cells in a bolus of 50 μl. Cells were then incubated for 20 min. […] Following an incubation in assay buffer, (10 min at 37° C.), PARS activity was measured as follows: 200 μl ice cold 50% w/v TCA was added and the samples were incubated for 4 hours at 4° C. Samples were then spun (10 min@10,000 g) and pellets washed twice with ice cold 5% w/v TCA and solubilized overnight in 250 μl 2% w/v SDS/0.1 N NaOH at 37° C. The contents of the tubes were added to 6.5 ml ScintiSafe Plus scintillation liquid (Fisher Scientific) and radioactivity was determined using a liquid scintillation counter (Wallac, Gaithersburg, Md.).

rat = experiment: Rat model of middle cerebral artery occlusion/reperfusion; assay type: in vivo; settings: 3 mg/kg/day i.p.
Experimental: Occlusion lasted for 2 hours, followed by reperfusion for 24 hours. Infarct size was quantified with tetrazolium staining. […] There was an approximately 80% reduction in the degree of cortical necrosis and neuronal death in the animals administered with 8l, when compared to vehicle-treated controls.

TNF-alpha = experiment: LPS induced TNF production in mice in vivo; settings: LPS 10 mg/kg i.p., plasma at 90 minutes, vehicle 6994.0
mice = experiment: Single high-dose streptozotocin model of diabetes; assay type: in vivo; settings: 3 mg/kg i.p.; STZ 160 mg/kg; blood sugar 3 days later; STZ + Vehicle 320 ± 13, basal 153 ± 21
Experimental: PARS inhibitors and PARS deficiency are known to reduce the development of diabetes and the incidence of diabetic complications (Mabley et al., Br J Pharmacol. 2001, 133(6):909-9; and Soriano et al., Nat Med. 2001, 7(1):108-13). […] Briefly, 160 mg/kg streptozotocin was injected to mice treated with vehicle or with illustrative Isoquinoline Derivatives intraperitoneally (3 mg/kg) and 3 days later blood sugar levels were determined using a blood glucose meter.

T1 sequence (P09874 whole entry): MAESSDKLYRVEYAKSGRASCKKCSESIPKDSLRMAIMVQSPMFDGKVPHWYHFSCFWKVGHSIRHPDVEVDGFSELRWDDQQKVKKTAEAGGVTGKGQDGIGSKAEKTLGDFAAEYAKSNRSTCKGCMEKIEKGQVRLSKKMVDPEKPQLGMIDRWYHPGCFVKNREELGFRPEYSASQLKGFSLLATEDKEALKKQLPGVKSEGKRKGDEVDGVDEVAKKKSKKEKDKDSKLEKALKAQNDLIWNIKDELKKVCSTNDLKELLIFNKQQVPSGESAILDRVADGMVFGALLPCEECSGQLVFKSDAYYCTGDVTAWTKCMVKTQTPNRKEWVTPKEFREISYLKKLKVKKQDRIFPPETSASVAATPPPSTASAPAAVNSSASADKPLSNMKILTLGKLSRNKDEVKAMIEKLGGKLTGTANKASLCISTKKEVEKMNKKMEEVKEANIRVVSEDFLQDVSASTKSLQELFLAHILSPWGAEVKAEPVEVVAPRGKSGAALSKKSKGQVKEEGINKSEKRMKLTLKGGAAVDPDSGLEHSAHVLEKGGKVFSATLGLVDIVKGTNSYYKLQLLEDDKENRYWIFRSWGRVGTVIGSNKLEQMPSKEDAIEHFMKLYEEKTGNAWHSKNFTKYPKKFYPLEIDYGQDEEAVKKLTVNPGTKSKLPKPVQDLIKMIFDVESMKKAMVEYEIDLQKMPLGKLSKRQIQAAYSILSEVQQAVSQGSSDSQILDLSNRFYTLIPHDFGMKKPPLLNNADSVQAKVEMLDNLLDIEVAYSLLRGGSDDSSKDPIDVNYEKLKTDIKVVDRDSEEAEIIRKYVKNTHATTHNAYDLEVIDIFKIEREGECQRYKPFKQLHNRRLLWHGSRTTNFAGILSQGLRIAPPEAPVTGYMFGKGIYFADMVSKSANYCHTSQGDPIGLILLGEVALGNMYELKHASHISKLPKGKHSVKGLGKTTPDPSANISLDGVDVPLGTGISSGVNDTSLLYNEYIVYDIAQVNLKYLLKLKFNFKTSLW
T2 sequence (P11103 whole entry): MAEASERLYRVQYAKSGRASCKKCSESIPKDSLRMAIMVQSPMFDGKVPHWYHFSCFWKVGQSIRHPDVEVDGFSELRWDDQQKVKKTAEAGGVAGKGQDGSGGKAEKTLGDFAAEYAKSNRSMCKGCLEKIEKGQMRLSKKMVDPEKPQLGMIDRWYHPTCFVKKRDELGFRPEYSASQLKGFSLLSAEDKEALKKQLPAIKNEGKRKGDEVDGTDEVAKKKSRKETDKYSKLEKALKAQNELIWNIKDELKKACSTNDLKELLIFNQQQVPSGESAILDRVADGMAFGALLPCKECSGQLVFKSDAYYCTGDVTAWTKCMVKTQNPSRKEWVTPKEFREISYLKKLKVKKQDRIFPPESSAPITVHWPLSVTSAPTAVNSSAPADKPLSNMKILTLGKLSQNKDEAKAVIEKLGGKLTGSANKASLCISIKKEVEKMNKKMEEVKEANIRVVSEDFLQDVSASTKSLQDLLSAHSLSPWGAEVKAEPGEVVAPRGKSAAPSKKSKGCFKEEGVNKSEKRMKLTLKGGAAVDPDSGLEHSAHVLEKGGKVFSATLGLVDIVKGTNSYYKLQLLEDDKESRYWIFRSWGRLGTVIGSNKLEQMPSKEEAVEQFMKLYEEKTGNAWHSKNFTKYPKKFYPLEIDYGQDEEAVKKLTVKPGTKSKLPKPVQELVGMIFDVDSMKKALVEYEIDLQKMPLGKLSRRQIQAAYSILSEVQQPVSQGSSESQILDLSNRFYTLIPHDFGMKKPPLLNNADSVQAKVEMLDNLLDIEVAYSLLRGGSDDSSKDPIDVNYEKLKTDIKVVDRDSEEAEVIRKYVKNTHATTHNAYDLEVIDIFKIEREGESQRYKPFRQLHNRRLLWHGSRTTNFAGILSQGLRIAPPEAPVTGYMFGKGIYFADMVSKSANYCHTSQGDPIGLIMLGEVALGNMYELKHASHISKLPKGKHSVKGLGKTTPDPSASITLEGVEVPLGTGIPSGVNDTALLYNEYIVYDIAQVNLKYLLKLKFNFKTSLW

Structure (SMILES)	inhibition at 0.3 µM (PARS; 300 nM)	inhibition at 1 µM (PARS)	inhibition at 0.1 µM (PARS)	further results
O=C(O)CCNC(=O)c1ccc2oc3c4ccccc4c(=O)[nH]c3c2c1 [Compound 26b]	–	–	–	% PARS inhibition at 100 nM (purified PARS enzyme): 21* %
O=C(O)c1ccc2c(c1)oc1c3ccccc3c(=O)[nH]c21 [Compound 22g]	23%	27%	–	–
Cc1ccc2oc3c4ccccc4c(=O)[nH]c3c2c1 [Compound 22e]	56%	53%	38%	–
O=c1[nH]c2c(c3ccccc13)Cc1cc(S(=O)(=O)NCCCN3CCOCC3)ccc1-2 [Compound 8l, 9-[N-(3-[morpholino-4-yl]propyl)-aminosulphonyl]-5,6-dihydro-5-oxo-11H-indeno-[1,2-c]isoquinoline]	–	–	–	functional benefit (rat): neurological improvements
CCN(CC)CCN(CCN(CC)CC)S(=O)(=O)c1ccc2c(c1)Cc1c-2[nH]c(=O)c2ccccc12 [Compound 8p, 9-[N,N-di-(2-[N,N-diethylamino]ethyl)-aminosulphonyl]-5,6-dihydro-5-oxo-11H-indeno-[1,2-c]isoquinoline]	45%	–	27%	TNF (TNF-alpha; 0.1 mg/kg i.p. pretreatment): 4470 pg/mL; TNF (TNF-alpha; 1.0 mg/kg i.p. pretreatment): 5090 pg/mL; Glucose (mice): 264 ± 24 mg/dL
O=c1[nH]c2c3ccc(S(=O)(=O)O)cc3n(S(=O)(=O)O)c2c2ccccc12 [Compound 34]	–	–	–	% PARS inhibition at 100 nM (purified PARS enzyme): 14* %; % PARS inhibition at 300 nM (purified PARS enzyme; 300 nM): 33* %
NS(=O)(=O)c1ccc2c3[nH]c(=O)c4ccccc4c3n(S(N)(=O)=O)c2c1 [Compound 35a, 6H,11H-Indole-[3,2-C]-Isoquinoline-5-one-9,11-disulfonamide]	–	–	–	% PARS inhibition at 100 nM (PARS): 14%; % PARS inhibition at 1 μM (PARS): 75%
O=c1[nH]c2c(c3ccccc13)Cc1cc(S(=O)(=O)NCCN3CCOCC3)ccc1-2 [Compound 8j, 9-[N-(2-[morpholino-4-yl]ethyl)-aminosulphonyl]-5,6-dihydro-5-oxo-11H-indeno[1,2-c]isoquinoline]	–	–	–	Glucose (mice): 253 ± 24
O=C(O)c1ccc2oc3c4ccccc4c(=O)[nH]c3c2c1 [Compound 22f]	23%	27%	–	–
O=c1[nH]c2c(c3ccccc13)C(N1CCNCC1)c1ccccc1-2 (racemic) [Compound 5c, (±) 11-piperizin-5,6-dihydro-5-oxo-11H-indeno[1,2-c]isoquinoline]	–	–	–	% PARS inhibition at 100 nM (PARS): 0%; % PARS inhibition at 1 μM (PARS): 24%
O=c1[nH]c2c3ccccc3[nH]c2c2ccccc12 [Compound 31, 6H,11H-Indole-[3,2-C]-Isoquinoline-5-one]	–	–	–	% PARS inhibition at 100 nM (PARS): 18%
CN1CCN(C2c3ccccc3-c3[nH]c(=O)c4ccccc4c32)CC1 (racemic) [Compound 5d, (±) 11-(N-methylpiperazin)-5,6-dihydro-5-oxo-11H-indeno[1,2-c]isoquinoline]	–	–	–	% PARS inhibition at 1 μM (PARS): 48%
COc1cccc2c1oc1c3ccccc3c(=O)[nH]c21 [Compound 22d]	–	–	–	inhibition at 1 µM (purified PARS enzyme; 1 μM): 13%
COc1ccc2c(c1)oc1c3ccccc3c(=O)[nH]c21 [Compound 22c]	66%	83%	62%	–
CN(C)CCN(CCN(C)C)S(=O)(=O)c1ccc2c(c1)Cc1c-2[nH]c(=O)c2ccccc12 [Compound 8q, 9-[N,N-di-(2-[N,N-dimethylamino]ethyl)-aminosulphonyl]-5,6-dihydro-5-oxo-11H-indeno-[1,2-c]isoquinoline]	28%	–	20%	–
O=c1[nH]c2c3cccc(O)c3oc2c2ccccc12 [Compound 23c]	66%	63%	63%	–
O=c1[nH]c2c3ccccc3oc2c2ccccc12 [Compound 22a]	–	81%	51%	–
O=c1[nH]c2c(c3ccccc13)Cc1cc(S(=O)(=O)N3CCC[C@H]3CO)ccc1-2 [Compound 8e, 9-[N-(2-hydroxyprolinyl)sulphonyl]-5,6-dihydro-5-oxo-11H-indeno[1,2-c]isoquinoline]	–	–	–	% PARS inhibition at 300 nM (PARS; 300 nM): 68%
